Experimental data from patent US20040132121A1, “Method of identifying antibacterial compounds” (priority 2000, published 2004).
Like-named read-outs stand apart in the source and are kept apart here. Where a SMILES comes first, the peptide text is derived from it. Where no end group is shown, it is not given here.

How the values were obtained:
[1] = target: T1, binding of E. coli α to E. coli β (Escherichia coli, UniProt P0A988); assay: biochemical; conditions: for inhibition of the binding of α to β: plate inhibition assay as in Example 6, buffer BB14
T1 construct: made in house
T1 sequence (P0A988 whole entry): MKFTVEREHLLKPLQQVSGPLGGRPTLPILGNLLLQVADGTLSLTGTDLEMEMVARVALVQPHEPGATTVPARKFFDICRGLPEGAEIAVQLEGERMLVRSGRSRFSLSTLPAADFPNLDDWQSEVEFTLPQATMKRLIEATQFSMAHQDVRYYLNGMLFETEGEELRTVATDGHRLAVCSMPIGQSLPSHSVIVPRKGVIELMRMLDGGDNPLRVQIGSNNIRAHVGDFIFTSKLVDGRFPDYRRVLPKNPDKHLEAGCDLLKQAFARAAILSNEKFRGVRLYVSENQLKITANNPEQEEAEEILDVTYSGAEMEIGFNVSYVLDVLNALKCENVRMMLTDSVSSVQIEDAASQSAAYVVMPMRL
Method: Recombinantly expressed wild type E. coli α subunit was purified and coated onto 96 well microtitre plates (Falcon flexible plates, Becton Dickinson) at 20 μg/ml in 100 mM Na2CO3, pH9.5 (50 μl/well, 4° C. overnight or 2 h, RT (RT). The plates were washed in WB3 (20 mM Tris (pH 7.5), 0.1 mM EDTA containing 0.05% v/v Tween 20). This buffer was used in all wash steps through out the assay. The plates were then blocked with “blotto” (5% skim milk powder in WB3, 100 μl/well, RT) until required. Immediately before use the plates were washed.
The purified synthetic peptides and β subunit were diluted in BB14 (20 mM Tris, pH 7.5, 10 mM MgCl2, 0.1 mM EDTA). Purified synthetic peptides with concentrations of 9.3-300 and 1000 μg/ml were allowed to complex with purified wild type β subunit (5 μg/ml) in a 96 well microtitre plate (Sarsted, Adelaide, Australia) pre-treated with “blotto” (30 min, RT). The reaction volume was 120 μl. The β subunit also was incubated in the absence of peptide or in the presence of the α subunit at 76.5 (μg/ml in BB14. All samples were incubated for 1 h (RT). Two 50 μl samples were transferred from each well to a corresponding well of the washed and “blocked” α subunit coated plates, and further incubated for 30 min (RT).
The plates were washed and treated with rabbit serum raised to the β subunit. The anti-serum was diluted 1:1000 in WB3 containing 10% “blotto”, dispensed at 50 μl/well and incubated for 12 min (RT). The plates were washed again and treated with sheep anti-rabbit Ig-HRP conjugate (Silenus, Melbourne, Australia) diluted 1:1000 in WB3 containing 10% “blotto” (50 μl/well). The plate was incubated for 12 min (RT). After a final washing step, 1 mM 2,2′-azino-bis (3-ethylbenzthiazoline-6-sulfonic acid) was added (110 μl/well). Colour development was assessed at 405 nm using a plate reader (Multiskan Ascent, Labsystems, Sweden).
For the CMS compounds in the of α:β assays, buffer BB37 replaced buffer BB14. Buffer BB37 contains 10 mM MnCl2 instead of the 10 mM MgCl2 used in BB14. The buffer conditions were changed to improve the reproducibility and sensitivity of the α:β binding assay.
Compounds from the CMS library were dissolved in DMSO at 1 mg/ml in a 96 well tray format. A corresponding slave plate was prepared by adding 115 μl of BB37. Dissolved compounds (5 μl) from the master plate was added to the corresponding well in slave plates giving a final concentration of 41.7 μg/ml.
Compounds were assayed for inhibition of the binding of E. coli α to E. coli β as described in Example 13.
Peptides were assayed for inhibition of the binding of E. coli α to E. coli β as described in Example 6 with the exception that buffer BB37 replaced buffer BB14 in the alpha:beta binding assay. As noted above, BB37 contains 10 mM MnCl2 instead of 10 mM MgCl2 used in BB14. Again, the change in buffer conditions was made to improve the reproducibility and sensitivity of the α:β binding assay.

[2] = test system: B. subtilis IH 6140; assay: Inhibition of growth of B. subtilis by peptides (OD620 growth curve); format: cell-based, Bacillus subtilis
Method: B. subtilis IH 6140 was subcultured from a fresh plate into a 10 ml tube containing 5 ml of Oxoid Mueller-Hinton broth (Oxoid code CM405 Oxoid Manual 7th edition 1995 pg 2-161). This culture was shaken at 120 rpm at 37° C. for 21 h and then diluted in normal saline to 0.5 McFarland Standard (NCCLS Performance standard for Dilution Antimicrobial Susceptibility Testing M7-A4 January 1997). This suspension was further diluted 1:5 in normal saline to form the bacterial starter culture. Peptides were tested at a final concentration of 1 mg/ml in a flat bottom 96 well plate (Nunclon surface, sterile Nalge Nunc International). Wells were prepared by using 100 μl of double strength Mueller-Hinton Broth, an appropriate volume of peptide and the final volume made up to 190 μl. The wells were then inoculated with 10 μl of the starter culture.
The plate was sealed with a clear adhesive plate seal (Abgene House). It was then placed in a Labsystems Multiskan Ascent spectrophotometer. The plate was incubated at 37° C. with shaking at 120 rpm every alternate 10 seconds. The absorbence at 620 nm was measured every 30 min for 16 h.

[3] = target: binding of E. coli δ to E. coli β (Escherichia coli, UniProt P0A988); assay: biochemical; conditions: for inhibition of the binding of δ to β: plate binding assay as in Example 6
Sequence of binding of E. coli δ to E. coli β (P0A988 whole entry): as above

[4] = target: T2, β subunit (Escherichia coli, UniProt P0A988); assay: Surface plasmon resonance solution affinity analysis (IC50 of free peptide); format: binding, E. coli
T2 sequence (P0A988 whole entry): as above
Method: (§1) Reverse phase HPLC purified peptides (10 μg) were reacted with 1 mg biotin-linker (6-(6-((biotinoyl)amino(hexanoyl) amino) hexanoic acid) sulphosuccinimidyl ester; Molecular Probes, Eugene, Oreg.) (20 mg/ml in DMSO) in 75 mM sodium borate (pH8.5) overnight (RT) with rotation. […] Biotinylated peptides that eluted later than the biotin-linker and free peptide, were collected, vacuum dried and then dissolved in water. SPR was conducted on a Biacore 2000 using streptavidin derivitised flow cell surfaces (Biacore). All β subunit and free peptide solutions were prepared in BB14 with 150 mM NaCl.
For the solution affinity analyses, higher loadings of the biotinylated peptides on the flow cell surfaces, and therefore high RU (700-1000), were established. Loading with peptide 4 generated a negative control surface. […] In all data manipulations, the RU values of this surface was subtracted from the RU values of the test surface. A calibration curve of RU values generated at different concentrations of the β subunit over 10-100 nM was developed for each biotinylated peptide attached to the flow cell surface. To determine the inhibitory effect of free peptide, 100 nM β subunit was pre-incubated for 5 min with different concentrations of free peptide (10 nM to 4.5 μM, in duplicate) to form a complex of β subunit and peptide and then passed over the flow cell surfaces. The amount of free uncomplexed βremaining was determined from the calibration curve. The log of the concentration of the uncomplexed (free) β subunit was plotted against the log concentration of inhibitory peptide.

[5] = target: T2, β subunit; assay: biochemical; format: binding, E. coli; conditions: SPR, 1:1 Langmuir model
Method: as §1
The data was fitted to the 1:1 Langmuir model by the BioEvaluation software (Biacore).

[6] = B. subtilis IH 6140, peptide 1 mg/ml, OD620 over 16 h
[7] = Table 21, NCI compounds, buffer BB14, read-out: IC50 α-binding
[8] = Table 17, α-coated plate, β 5 μg/ml, buffer BB14, read-out: IC50 α (inhibition of binding of α to β) (converted)
[9] = Table 20, assayed as in Example 6, read-out: IC50 α:β
[10] = IC50 δ (inhibition of binding of δ to β), Table 17, δ-coated plate, β 1 μg/ml
[11] = IC50 b-peptide 1, free peptide with 100 nM β, biotinylated peptide 1 on flow cell surface
[12] = IC50 b-peptide 14, free peptide with 100 nM β, biotinylated peptide 14 on flow cell surface
[13] = Table 24, buffer BB37 (10 mM MnCl2), read-out: IC50 α:β
[14] = free peptide with 100 nM β, biotinylated peptide 1 on flow cell surface, read-out: IC50 b-peptide 1
[15] = free peptide with 100 nM β, biotinylated peptide 14 on flow cell surface, read-out: IC50 b-peptide 14
[16] = biotinylated peptide on surface, read-out: KD
[17] = biotinylated peptide on flow cell surface, read-out: KD

For COC(=O)CC(=O)NOCc1ccc(Cl)c(Cl)c1 [AOC-06454], the “% Inhibition of binding of E. coli α to E. coli β” value [1] was 72.2, 75.3%.

COC(=O)CC(=O)NOCc1ccc(Cl)c(Cl)c1 [AOL-06454] was tested, and the “inhibition of the binding of E. coli α to E. coli β (CMS library screen)” value [1] was “significantly inhibited”.

For CC(C)C[C@H](NC(=O)[C@@H](N)CC(=O)O)C(=O)N[C@@H](Cc1ccccc1)C(=O)O [DLF] (H-Asp-Leu-Phe-OH; N-terminus and C-terminus assumed), the “Doubling time log phase” value [2, 6] was 187 Min, the “Increase in lag phase” value [2, 6] was 120 min and the “effect on growth rate during log phase of B. subtilis” value ([2]; peptide 1 mg/ml) was “decreasing the growth rate”. For the same compound, the “effect on lag phase of B. subtilis growth” value ([2]; peptide 1 mg/ml) was “increasing the lag phase”, the “inhibition of growth of B. subtilis” value ([2]; peptide 1 mg/ml, OD620 over 16 h) was “significantly inhibits” and the IC50 ([1]; α:β binding, 50% inhibition, plate inhibition assay) was about 343 µM. The IC50 ([3]; δ:β binding, 50% inhibition, plate binding assay) was about 3050 µM.

For CC[C@H](C)[C@H](N)C(=O)NCC(=O)N[C@@H](CCC(N)=O)C(=O)N[C@@H](C)C(=O)N[C@@H](CC(=O)O)C(=O)N[C@@H](CCSC)C(=O)N[C@@H](Cc1ccccc1)C(=O)NCC(=O)N[C@H](C(=O)O)C(C)C [DnaE], the “inhibition of the binding of α to β” value [1] was “significant inhibition” and the “inhibition of the binding of δ to β” value [3] was “inhibited”.

In the case of NC(CCC(=O)NC(CSCC(=O)c1ccc(Br)cc1)C(=O)NCC(=O)O)C(=O)O (centres unmarked) [Peptide 131123], the IC50 [1, 7] is reported as 210 µM, the “inhibition of the binding of α to β” value [1] is reported as “significantly inhibited” and the IC50 ([3]; IC50 δ-binding, Table 21) is reported as over 1000 µM.

CC(C)(C)OC(=O)NCC(=O)NC(CSC(c1ccccc1)c1ccccc1)C(=O)NCC(=O)O (centres unmarked) [Peptide 338500] was tested, and the IC50 [1, 7] was over 1000 µM, the IC50 ([3]; IC50 δ-binding, Table 21) was 146 µM and the “inhibition of the binding of δ to β” value [3] was “significantly inhibited”.

Compound CC(C)C[C@H](NC(=O)[C@@H](N)CC(=O)O)C(=O)N[C@@H](Cc1ccccc1)C(=O)O [pep16] (H-Asp-Leu-Phe-OH; N-terminus and C-terminus assumed) has an IC50 [1, 8] of 343 µM, an IC50 [1, 9] of 135 µM and an IC50 [3, 10] of 3050 µM.

With CC(=O)N[C@@H](CC(=O)O)C(=O)N[C@@H](CC(C)C)C(=O)N[C@@H](Cc1ccccc1)C(N)=O [pep18] (Ac-Asp-Leu-Phe-NH2) the IC50 [1, 9] was 135 µM.

In the case of EAQLDLFDS [Peptide 112d], the IC50 [1] is reported as 1 µM and the IC50 [3] is reported as 3.6 µM.

IGQADMAGV [Peptide 4] was tested, and the IC50 [4, 11] was over 10000 nM and the IC50 [4, 12] was over 10000 nM.

IGQAMSLFGV [Peptide 110a] was tested, and the IC50 [1, 13] was 27 µM and the IC50 ([3]; IC50 δ:β, Table 24) was over 100 µM.

For IGQASMFGV [pep2], the IC50 [1] was 946 µM and the “IC50 δ (inhibition of binding of δ to β)” value ([3]; Table 17, δ-coated plate, β 1 μg/ml) was “ni^a”.

In the case of IGQLDLFGV [Peptide 14], the IC50 [4, 14] is reported as 400 nM, the IC50 [4, 15] is reported as 500 nM and the Kd [5, 16] is reported as 800 nM. The Kd [5, 17] was 778 nM, the “inhibition of the binding of α to β” value [1] was “significant inhibition” and the “inhibition of the binding of δ to β” value [3] was “inhibited”.

With IGQLDLFGV [pep14] the IC50 [1, 8] was 1.38 µM and the IC50 [3, 10] was 9.16 µM.

IGQLDMFGV [Peptide 1] gave an IC50 [4, 11] of 920 nM, an IC50 [4, 12] of 1010 nM and a Kd ([5]; KD, biotinylated peptide on surface) of 500 nM. The Kd ([5]; KD, biotinylated peptide on flow cell surface) was 558 nM, the “inhibition of the binding of α to β” value [1] was “significant inhibition” and the “inhibition of the binding of δ to β” value [3] was “inhibited”.

Work on IGQLDMFGV [pep1] yielded an IC50 [1] of 2.86 µM and an IC50 [3] of 13.2 µM.

In the case of IGQLGLFGV [Peptide 110f], the IC50 [1, 13] is reported as 17.5 µM and the IC50 ([3]; IC50 δ:β, Table 24) is reported as 9.5 µM.

IGQLNLFGV [Peptide 110d] gave an IC50 [1, 13] of 7.8 µM and an IC50 ([3]; IC50 δ:β, Table 24) of 11.5 µM.

In the case of IGQLSLFGV [Peptide 13], the IC50 [4, 14] is reported as 440 nM, the IC50 [4, 15] is reported as 550 nM and the Kd [5, 16] is reported as 778 nM. For the same compound, the Kd [5, 17] was 800 nM, the IC50 [1, 8] was 1.52 µM and the IC50 [1, 13] was 4.9 µM. For the same compound, the “inhibition of the binding of α to β” value [1] was “significant inhibition”, the IC50 [3, 10] was 10.2 µM and the IC50 ([3]; IC50 δ:β, Table 24) was 5.9 µM. The “inhibition of the binding of δ to β” value [3] was “inhibited”.

For IGQLSLPLGV [Peptide 110c], the IC50 [1, 13] was 3.4 µM and the IC50 ([3]; IC50 δ:β, Table 24) was 3.3 µM.

IGQLVLGLGV [Peptide 110b] showed an IC50 [1, 13] of 9.3 µM and an IC50 ([3]; IC50 δ:β, Table 24) of 6.8 µM.

IGQMSLLGV [Peptide 110e] was tested, and the IC50 [1, 13] was 9.7 µM and the IC50 ([3]; IC50 δ:β, Table 24) was 7 µM.
